These results are taken from PubChem BioAssay (NCI).

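1) Cells in 96-well plates. 2) Compound, 48 h, 5 concentrations. 3) Linear interpolation between surrounding doses. 4) Unreached endpoint = highest concentration. Here, GI50 denotes the concentration required for 50% inhibition of growth. TGI: concentration producing complete growth inhibition.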

Holding throughout (test): DTP human tumour cell line panel, 48 h
Assay [1] concerns HT29 colon.
The subject of assay [2] is CCRF-CEM leukemia.
For assay [3], the system named is MDA-MB-435.
The test system of assay [4] is OVCAR-3 ovarian.
Assay [5] has as its system SNB-19 CNS.
In assay [6] the test system is TK-10 renal.
The test system of assay [7] is MOLT-4 leukemia.
Assay [8] concerns DU-145 prostate.
In assay [9] the test system is 786-0 renal.
Assay [10] concerns RXF 393 renal.

Consider `COC(=O)C1(N2CCOCC2)CCC([C@@H](c2ccccc2)C(C)[N+](=O)[O-])C1` (some centres not stated), for which the total growth inhibition concentration (TGI) is > 100 µM in [1]; 20.3 µM in [2]; > 100 µM in [3]; 71.3 µM in [4]; > 100 µM in [5]; > 100 µM in [6]. Also, the TGI in [7] was > 100 µM; in assay [8] it was 59.6 µM; in assay [9], > 100 µM.
`C=C1[C@H](O)C[C@@H](C(C)C(O)CC=C(C)C)[C@@H](O)[C@@H]2C(C)=CC[C@@H]12` (some centres not stated): the GI50 in assay [1] was > 100 µM; in assay [2], 55.6 µM; in assay [3] it was > 100 µM; in assay [5] it was > 100 µM; in assay [6], > 100 µM; in assay [7] it was 35.1 µM. Besides, the GI50 in assay [8] and in [9] was > 100 µM in each case. In addition, the TGI in assay [1], in [2], in [3], in [5], in [6] and in assay [7] was > 100 µM throughout. Besides, the concentration for total growth inhibition (TGI) in assay [8] and in [9] was > 100 µM in each case.
As to `COc1ccc(NC(=O)CC2SC(=Nc3ccc(Cl)cc3C)NC2=O)c([N+](=O)[O-])c1` (configuration not stated), the TGI in assay [1], in assay [10], in [2], in assay [4], in assay [5] and in assay [6] was > 100 µM each time. Further, the total growth inhibition concentration (TGI) in assay [7] and in assay [9] was > 100 µM each time.
Take `O=S1c2ccccc2N=C(c2cccs2)CC1c1ccccc1O` (configuration not stated): the TGI in [1], in assay [10], in [2], in assay [4], in [5] and in assay [6] was > 100 µM in each case. Moreover, the concentration for total growth inhibition (TGI) in assay [7] and in [9] was > 100 µM in each case.
`CS(=O)(=O)Nc1cc(-c2ccc3ncnc(Nc4ccc(OCc5ccccn5)c(Cl)c4)c3c2)cnc1Cl`: the GI50 was 0.456 µM in assay [1]; 0.217 µM in assay [2]; 0.376 µM in [3]; 0.217 µM in [4]; 0.449 µM in assay [5]; 0.23 µM in [6]. Moreover, the values for the GI50 in assay [7], in assay [8] and in assay [9] were 0.223 µM, 0.52 µM and 0.804 µM, respectively. Also, the concentration for total growth inhibition (TGI) in [1] was 38.5 µM; in assay [2], > 100 µM; in [3] it was 2.78 µM; in [4] it was 1.41 µM; in assay [5] it was > 100 µM; in assay [6], 1.78 µM. Further, the TGI in [7] is 0.75 µM; in assay [8] it was > 100 µM; in assay [9] it was > 100 µM.
Turning to `CC1O[C@@H]2CCCCC(=O)[C@]2(C)[C@H]1C` (some centres not stated), the total growth inhibition concentration (TGI) in assay [1], in [10], in [2], in [4], in assay [5] and in assay [6] was > 100 µM each time. In addition, the concentration for total growth inhibition (TGI) in [7] and in assay [9] was > 100 µM each time.
Regarding `Cc1ccccc1C1SCc2nc3ccccc3n21` (configuration not stated), the total growth inhibition concentration (TGI) in assay [10], in assay [2], in [4], in assay [5], in assay [6] and in assay [9] was > 100 µM throughout.
Regarding `OCC1OC(n2cnc3cc(Cl)c(Cl)cc32)C(O)C1O` (configuration not stated), the GI50 was 33.6 µM in [1]; 38.8 µM in assay [2]; 24 µM in assay [3]; 22.7 µM in [4]; 25.3 µM in assay [5]; 29.3 µM in [6]. For the same compound, the GI50 in assay [7] was 3.85 µM; in assay [8], 17.2 µM; in assay [9], 23.6 µM. For the same compound, the total growth inhibition concentration (TGI) in assay [1] is > 100 µM; in assay [2] it was > 100 µM; in assay [3], 82.6 µM; in assay [4] it was 72.3 µM; in [5] it was > 100 µM; in [6], > 86.4 µM. Besides, the total growth inhibition concentration (TGI) in assay [7] was > 41.3 µM; in assay [8] it was > 61.2 µM; in assay [9] it was > 68.3 µM.
Turning to `O=C(NNC(=O)/C(=C/c1cccc([N+](=O)[O-])c1)NC(=O)c1ccccc1)Nc1ccc(Cl)cc1`, the TGI in assay [1] came to 27.8 µM; in assay [10], 25.6 µM; in assay [2] it was 31.2 µM; in [4] it was 25.4 µM; in [5] it was 30.8 µM; in assay [6] it was 31.7 µM. Moreover, the TGI is 25.2 µM in assay [7] and 29.1 µM in assay [9].
Regarding `O=C(C#Cc1ccccc1)N1CCCCC1`, the TGI in assay [1], in [2], in [3], in [4], in assay [5] and in [6] was > 100 µM each time. The concentration for total growth inhibition (TGI) in assay [7], in assay [8] and in assay [9] was > 100 µM in each case.
Consider `CC(C)(C)c1cc([Si](C)(C)C)c(C#N)c([Si](C)(C)C)c1`, for which the concentration for total growth inhibition (TGI) in assay [1], in assay [10], in [2], in assay [4], in [5] and in assay [6] was > 100 µM in each case. Moreover, the concentration for total growth inhibition (TGI) in assay [7] and in assay [9] was > 100 µM throughout.
In the case of `CC#CC#C/C=C1/C=CC2(CCCCO2)O1` (configuration not stated), the concentration for total growth inhibition (TGI) in assay [1] was > 100 µM; in assay [2], 53.9 µM; in [3], > 100 µM; in assay [5], > 100 µM; in assay [6] it was > 100 µM; in [7] it was > 100 µM. Further, the concentration for total growth inhibition (TGI) in assay [8] and in [9] was > 100 µM in each case.
For the compound `Oc1ccc(Cl)cc1N=Nc1c(O)ccc2ccccc12`, the TGI in assay [1], in assay [10], in assay [2], in assay [3], in assay [4] and in assay [5] was > 100 µM in each case. The TGI in [6], in [7] and in assay [9] was > 100 µM throughout.
`O=c1[nH]c(C2CCCCC2)nc2ccc(Cl)cc12`: the TGI in assay [1], in [10], in assay [4], in [5], in assay [6] and in assay [7] was > 100 µM in each case. For the same compound, in assay [9], the TGI was > 100 µM.
For `O=Cc1cc2sc(C=O)cc2s1`, the TGI in assay [1], in [10], in assay [2], in [4], in assay [5] and in [6] was > 100 µM throughout. Besides, the TGI in assay [7] and in [9] was > 100 µM throughout.
Take `COc1cc(OC)c(OC)cc1/C=C/c1ccc2ccccc2n1`: the TGI in assay [1], in assay [2], in assay [3], in assay [4], in assay [6] and in assay [7] was > 10 µM each time. In addition, the concentration for total growth inhibition (TGI) in assay [8] and in assay [9] was > 10 µM each time.
`O=C1/C(=C/c2ccc(C(=O)O)cc2)CNC/C1=C\c1ccc(C(=O)O)cc1`: the total growth inhibition concentration (TGI) in assay [1], in assay [10], in assay [2], in assay [4], in assay [6] and in [7] was > 100 µM in each case. Moreover, the TGI in assay [9] is > 100 µM.
On to `CCCCCCCC(=O)[O-].N.N.N.N.N.[Co+3].[O-][Cl+3]([O-])([O-])[O-]`, for which the GI50 in assay [1] is > 100 µM; in assay [2] it was > 100 µM; in assay [4], > 100 µM; in [5], > 100 µM; in assay [6], > 100 µM; in [7], 53.5 µM. For the same compound, in assay [9], the GI50 was > 100 µM. In addition, the total growth inhibition concentration (TGI) in assay [1], in assay [2], in assay [4], in [5], in assay [6] and in assay [7] was > 100 µM each time. Besides, in [9], the TGI was > 100 µM.
For `O=C(Nc1cccc(Cl)c1)Nc1cc(C(F)(F)F)ccc1Cl`, the GI50 was 3.03 µM in assay [1]; 1.12 µM in assay [10]; 3.24 µM in assay [2]; 2.61 µM in assay [4]; 3.81 µM in [5]; 4.29 µM in assay [6]. For the same compound, the GI50 is 3.12 µM in assay [7], 2.95 µM in assay [8] and 2.86 µM in [9]. The TGI in assay [1] is 11.3 µM; in assay [10] it was 3.95 µM; in assay [2], > 100 µM; in assay [4] it was 7.19 µM; in assay [5] it was 19.6 µM; in assay [6] it was 39.5 µM. Also, the figures for the TGI in assay [7], in [8] and in [9] were 11.4 µM, 10.2 µM and 12 µM, respectively.
For `COc1ccc(C2[C@@H](Cl)C(=O)N2c2ccc(OC)cc2)cc1` (some centres not stated), the TGI in assay [1], in assay [10], in [2], in assay [4], in [5] and in assay [6] was > 100 µM throughout. The TGI in [7] and in assay [9] was > 100 µM throughout.
As for `CC1=NN(c2ccccc2)C(=O)C1N=Nc1ccc(Br)cc1C` (configuration not stated), the concentration for total growth inhibition (TGI) in assay [1], in [10], in [2], in assay [4], in assay [5] and in [6] was > 100 µM throughout. For the same compound, the TGI in assay [7] and in [9] was > 100 µM throughout.
With `O=S(=O)(O)c1ccc([Se][Se]c2ccc(S(=O)(=O)O)cc2)cc1`, the TGI in [1], in assay [10], in assay [2], in [4], in assay [5] and in assay [6] was > 100 µM throughout. Moreover, the concentration for total growth inhibition (TGI) in [7] and in assay [9] was > 100 µM in each case.
`Clc1cc2ns[s+]c2cc1Cl`: the TGI is > 100 µM in assay [1]; > 100 µM in assay [10]; > 100 µM in assay [2]; > 100 µM in [4]; > 100 µM in [5]; 98.9 µM in [6]. Besides, the TGI in [7] and in assay [9] was > 100 µM each time.
With `Oc1ccccc1-c1cnnc(-c2ccccc2O)c1`, the TGI in assay [1] is 64.3 µM; in assay [10] it was 56.5 µM; in [2] it was 36.5 µM; in assay [4] it was 44.6 µM; in assay [6] it was > 100 µM; in assay [7], 66.5 µM. This compound showed a TGI in assay [9] of 36.6 µM.
For `NC1=NN(c2ccccc2)C(=O)C1/C(=N\NC(=O)c1cc2ccccc2cc1O)C(=O)Nc1ccc(Cl)c(Cl)c1` (configuration not stated), the TGI in [1] is > 100 µM; in assay [10] it was > 100 µM; in assay [2], 57.7 µM; in assay [4] it was 54.8 µM; in assay [5], > 100 µM; in assay [6] it was > 100 µM. For the same compound, the TGI in assay [7] is 75.6 µM; in assay [9], > 100 µM.
`c1ccc2cc(Cn3c(-c4cccc5ccccc45)[n+](Cc4ccc5ccccc5c4)c4c5ccccc5c5ccccc5c43)ccc2c1`: the GI50 in assay [2] was 0.362 µM; in assay [3], 0.359 µM; in assay [5], 0.318 µM; in [7] it was 0.385 µM; in assay [8] it was 0.413 µM; in assay [9], 0.308 µM. The concentration for total growth inhibition (TGI) in assay [2] turned out to be 2.31 µM; in [3], 1.38 µM; in assay [5], 1.62 µM; in assay [7], 2.09 µM; in [8], 1.68 µM; in [9], 1.7 µM.
As to `Cc1cc(NCCCCCCCCNc2cc(C)nc3cc(N(C)C)ccc23)c2ccc(N(C)C)cc2n1`, the TGI in assay [10] was 28.7 µM; in assay [2], 49.1 µM; in assay [4] it was 18.4 µM; in [5] it was 61.6 µM; in assay [7], > 100 µM; in assay [9], 21 µM.
Take `CCCCCCCCCCCCCC(=O)OCC1OC(=O)C(O)C1O` (configuration not stated): the TGI in assay [1], in assay [2], in assay [4], in assay [5], in assay [6] and in assay [7] was > 100 µM throughout. Moreover, the total growth inhibition concentration (TGI) in assay [9] is > 100 µM.

As a reminder, the TGI is the concentration at which net growth stops. Higher therefore signals less potent growth arrest. A word on the GI50: it is the concentration that inhibits growth by half.
